Reference: patent publication US20060264372A1, “Process for the synchronization of ovulation for timed breeding without heat detection” (priority 2003, published 2006)

What was measured:
postpartum sows = experiment: Timed deslorelin injection 96 hours post-weaning and single timed insemination without estrus detection (Example 3); assay type: in vivo, swine; details: 50 mcg in SAIB 96 hours post-weaning
Description: Approximately 170 postpartum sows were randomly divided into two equal groups comprised of controls and treated. Following weaning, the controls were detected for estrus and bred following the normal standard operating procedures for the farms on which they resided. The treated sows received a 50 mcg dose of deslorelin in SAIB at 96 hours post-weaning and were bred with a single insemination 28±2 hours later with no regard to estrus detection. The sows were examined for pregnancy by ultrasound at 21 days and slaughtered around 28 days post breeding. The entire reproductive tract was removed and corpora lutea and embryos were counted.

mature postpartum sows = experiment: Intravulvar deslorelin at estrus detection in mature postpartum sows, AI breeding (Example 2); assay type: in vivo, swine; details: per litter; 50 μg intravulvar at first estrus detection
Description: Sows were assigned randomly in blocks of two to either control or to be injected intravulvar with 50 mcg of deslorelin in SAIB at the time of estrus detection for sows first detected in estrus in the a.m. and 12 hours later for those first detected in estrus in the p.m. Treated animals were bred AI upon detected estrus and again 24 hours later if still in estrus. Controls received a saline injection on first detected estrus behavior estrus detection and were bred according to the farm's normal procedures. Saline sows bred at detected estrus consistent with farm sows. Deslorelin sows injected intravulvar with 1 ml (50 μg deslorelin acetate) at first estrus detection and AI, then AI again if in estrus the next day. Live piglet number 0.6> in Deslorelin versus Saline sows.

CCNC(=O)[C@@H]1CCCN1C(=O)[C@H](CCCN=C(N)N)NC(=O)[C@H](CC(C)C)NC(=O)[C@@H](Cc1c[nH]c2ccccc12)NC(=O)[C@H](Cc1ccc(O)cc1)NC(=O)[C@H](CO)NC(=O)[C@H](Cc1c[nH]c2ccccc12)NC(=O)[C@H](Cc1cnc[nH]1)NC(=O)[C@@H]1CCC(=O)N1 [Deslorelin, deslorelin]
Embryo Survival (postpartum sows): 64%
Sows Pregnant (postpartum sows; single insemination 28±2 hours later, 84 in group): 60
Live piglet number, greater versus Saline sows (mature postpartum sows): 0.6
